Where a chain is given by its changes, count along the chain named.
Legend:
[1] = target: His6-FisB ECD (recombinant soluble extracytoplasmic domain of fission protein B, wild type) (B. subtilis); assay: negative-stain electron microscopy; high molecular weight SEC fractions on carbon-coated grids, 2% uranyl acetate
iFluor555-FisB ECD [2] = target: T1, iFluor555-FisB ECD (Bacillus subtilis, UniProt O32131, G123C); assay: liposome co-flotation, fluorescence of gel band; format: binding; conditions: apparent, in total lipid concentration, 55% PC, 100 nM labelled protein, room temperature, 1 h
T1 construct: iFluor555-maleimide on G123C; forms soluble oligomers
T1 sequence (O32131 39-254 G123C limits assumed): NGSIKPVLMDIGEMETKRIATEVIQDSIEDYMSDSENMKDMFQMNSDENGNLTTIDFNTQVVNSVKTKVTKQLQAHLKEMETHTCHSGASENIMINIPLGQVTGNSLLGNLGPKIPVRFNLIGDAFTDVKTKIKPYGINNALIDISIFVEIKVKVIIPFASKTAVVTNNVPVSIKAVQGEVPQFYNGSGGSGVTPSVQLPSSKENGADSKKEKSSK

iFluor555-FisB ECD [3] = target: T2, iFluor555-FisB ECD (Bacillus subtilis, UniProt O32131, G123C/K168D/K170E); assay: liposome co-flotation, fluorescence of gel band; format: binding; conditions: apparent; in total lipid concentration; liposomes 45 mole % CL, 55% PC; 100 nM labelled protein; room temperature, 1 h; read-out: KdKK
T2 construct: iFluor555-maleimide on G123C; forms soluble oligomers
T2 sequence (O32131 39-254 G123C/K168D/K170E limits assumed): T1 sequence (O32131 39-254 G123C limits assumed) with K130D, K132E

His6-FisB ECD (recombinant soluble extracytoplasmic domain of fission protein B, wild type) (domain or fragment)
stoichiometry N [1]: 40 copies

phosphatidylglycerol [PG]
Kd (iFluor555-FisB ECD [2]; liposomes 45 mole % PG): 3.6 µM

cardiolipin [CL]
Kd (iFluor555-FisB ECD [3]): 9.1 µM | Kd (iFluor555-FisB ECD [2]; liposomes 45 mole % CL): 1 µM

From article PMC8274934, “FisB relies on homo-oligomerization and lipid binding to catalyze membrane fission in bacteria” (PLoS Biology, 2021)
